The values that follow come from patent US12447135B2 (University of South Florida, priority 2021, dated 2025).

Entries after “also recorded” stand apart in the source; their conditions may differ.

One test has as its system C. elegans CL4176. The test can be described thus: Paralysis assay in C. elegans CL4176. The class given is in vivo. The following applies: CL4176 worms, 10 μM, vs non-treated controls. The method, then: For paralysis assays, synchronized eggs of CL4176 were kept at 16° C. for 48 h, and the worms were transferred onto NGM plates. […] Counting was performed at 2 h intervals, typically after 14 h, at 23° C., and until the last worm became paralyzed. […] Each C. elegans experiment was conducted with at least 100 worms.

For test [1], the system named is proteasome. The test can be described thus: Proteasome activity assay in brain of APP/PS1 mice. The class given is in vivo. To be noted: 80 mg/kg daily oral gavage, 3 months. As for the experimental part:
Brains were collected and immediately homogenized in proteasome lysis buffer and proteasome activity was measured as described below. All the animal procedures and experiments were approved by the institutional animal care and use committee (IACUC) of the Wake Forest School of Medicine and the University of South Florida.
(§1) The CL2006 strain, SK-N-SH cells, and brain tissues were sonicated in a lysis buffer (150 mM NaCl, 50 mM HEPES, 2 mM DTT, 20 mM NaF, 5 mM EDTA, 2.5 mM sodium pyrophosphate, 1 mM sodium orthovanadate, and 1 mM α-glycerophosphoric acid) and then centrifuged at 15,000 g at 4° C. for 15 min. Total protein was assayed using BCA kit and 20 μg protein was mixed with 140 μM suc-leu-leu-val-tyr-7-amino-4-methylcou-marin (AMC) in a proteasome activity assay buffer (150 mM NaCl, 50 mM HEPES [pH 7.4], 5 mM ATP, and 5 mM EDTA), and then the fluorescence (excitation 380 nm and emission 460 nm) was measured every 10 min over 3 h using a microplate reader. The assay was performed with and without the proteasome inhibitor MG132 (10 μM).

In another test the test system is SK-N-SH cells. The test can be described thus: Senescence β-galactosidase staining. To be noted: Aβ-treated cells, Fenchol. It is filed as cell-based, human. As for the experimental part:
After overnight incubation, Aβ 25-32 (25 μM) peptide was added to the cells for 4 h. The Senescence β-Galactosidase Staining Kit (Cell Signaling, USA) was used for the detection of the expression of β-galactosidase activity, following the manufacturer's instructions.

A further test deals with FFAR2 signaling. The test can be described thus: Western blot of phospho-ERK1/2 in SK-N-SH cells (FFAR2 signal activation). It is filed as cell-based, human. To be noted: 10 μM, 30 min. The method, then:
To determine the FFAR2 signal activating property of selected compounds, SK-N-SH cells were treated with 10 μM of shortlisted compounds for 30 min at 37° C. and harvested for total protein extraction. […] After sonication, cell extracts were centrifuged at 8,000×g for 10 min at 4° C., and the supernatant was separated in a fresh tube. The total protein concentration of the supernatant was measured using a BCA protein assay kit. An equal amount of total protein (45 μg) from each sample was dissolved in loading buffer and loaded in 4% stacking gel and 10% separating SDS-PAGE gel and resolved at 100 V. Proteins were transferred on a 0.22 μm PVDF membrane and blots were developed with anti-ERK1/2, anti-phosphoERK1/2, ubiquitin (P4D1), and Aβ (6E10) primary antibodies followed by their secondary antibodies and bands were visualized using the Pierce™ Fast Western Blot Kit, ECL Substrate acquired using Syngene Pxi. Band densities were also quantified using NIH ImageJ software. β-actin was used as an internal control.
A general note: Immunoblotting shows a protein as a band on a membrane.

The test system of test [2] is proteasome. The test can be described thus: Proteasome activity assay in C. elegans. It is filed as in vivo. To be noted: C. elegans (CL2006). As for the experimental part:
as §1

The subject of test [3] is C. elegans CL2355 and CL2122. The test can be described thus: Chemotaxis activity in C. elegans. The class given is in vivo. To be noted: 10 μg/ml. The method, then: Then the worms were washed twice with S-Basal media and transferred to an NGM plate without E. coli OP50. These plates were divided into four equal sectors, with 1 μl of 0.1% benzaldehyde as an odorant and 1 μl of 1 M sodium azide as an anesthetic to arrest the worms upon reaching the quadrant were added to the original spot. On the opposite side of the attractant, a 1 μl drop of sodium azide and 1 μl of control odorant (100% ethanol) were added onto the NGM agar plate. Around 40-45 worms were placed in the center of each plate, incubated at room temperature for 1 h, and transferred to 4° C. overnight. The chemotaxis index (CI) was scored using the following formula: (number of worms at the attractant location […])/total number of worms on the plate ([…] et al., 2013).

The next test relates to C. elegans. The test can be described thus: Lifespan assay in C. elegans. The class given is in vivo. To be noted: 10 μM. The method, then:
C. elegans was used as a model for determining the impact of selected compounds on aging and AD-like phenotypes. The wild-type (N2) and CL2122 (dvls15 [9pPD30.38) unc-54(vector)+(pCL26)mtl-2::GFP]) were propagated at 20° C. AD transgenic worms model CL2006 (dvls [pCL12(unc-54/human abeta peptide 1-42 minigene)+pRF4), CL4176 (dvls27[myo-3p::A-Beta (1-42)::let-851 3tUTR)+rol-6 (su1006] and CL2355 (dvls 50 [pCL45 9snb-1::Abeta 1-42::3t UTR 9 log)+mtl-2::GFP]) were maintained at 16° C. All strains were cultured on solid nematode growth medium (NGM) consisting of 3 g/L NaCl, 2.5 g/L peptone, 5 mg/L cholesterol, 1 mM CaCl2), 1 mM MgSO4, 25 mM KH2PO4, and 17 g/L agar and seeded with OP50 (Escherichia coli strain) as a food supply. The worms were allowed to grow up to the adult stage, and egg carrying worms were used to isolate age-synchronized eggs using the bleaching method (Porta-de-la-Riva et al., 2012). […] (N2 and CL2122) or 16° C. (CL2006, CL4176, and CL2355). All of the strains used were acquired from the University of Minnesota-Caenorhabditis Genetics Center, which is funded by the NIH Office of Research Infrastructure Programs (P40 OD010440).
To determine the impact of selected compounds on age related decline in brain health, the lifespan of the worms was first measured. The L1 worms were cultured in 96-well plates on S-complete media containing E. coli OP50 and antibiotics (about 10-15 animals per well). […] The 0.6 mM Fluorodeoxyuridine (FUDR; 30 μl) was added to each well after 3 days and animals were monitored every other day for viability. The CL4176 and CL2006 worms were grown at 16° C. and N2 worms were grown at 20° C.

For the molecule `CC12CCC(C1)C(C)(C)C2O` (stereo not drawn) [Fenchol], in the test on C. elegans CL4176, the paralytic attacks entry is given as “decreased”. For the same molecule, the proteasomal activity result in the test on proteasome [1] (APP/PS1 mice cortex), with proteasome [1] (APP/PS1 mice hippocampus) and in the test with proteasome [2] was “significantly increased” each time. Moreover, in the test with SK-N-SH cells, the “number of senescent neuronal cells” value is “significantly reduced”. The “descending order of phospho-ERK1/2 levels” value in the test on FFAR2 signaling is listed as “Fenchol>Octopamine>Carvamenthenol>Camphene>Pentanone>Synephrine>Leucinamide>Carene>α-Terpineol>Breneol>L-Fenchone>D-Fenchone>Norpseudoephedrine HCl”. Moreover, in the test on FFAR2 signaling (vs rest of selected compounds), the “levels of phospho-ERK1/2 proteins” value is “highest in Fenchol and comparable to acetate”. Also, the “memory behavior / chemotaxis index” value in test [3] (CL2355 worms overexpressing human Aβ) was “significantly higher; also recorded: preserved”. Moreover, the chemotaxis index result in test [3] (control CL2122 strain) is recorded as “normal effects”. Also, the survival/lifespan result in the test with C. elegans (CL2006 worms overexpressing human Aβ) and in the test with C. elegans (CL4176 worms overexpressing human Aβ) was “significantly increased” each time. The lifespan result with C. elegans (wild-type N2 worms) is “no significant impacts”.
